The source of these data is patent US8148333B2, “Stable composition comprising a PTHrP analogue” (priority 2006, dated 2012).

The structures appear in SMILES notation.

The test system of one data set is bacteria, yeast and mold. Nature of the data set: Preservative effectiveness test, screening of preservatives (Table 3). Conditions: Table 3 screening. In kind it is cell-based. The procedure: Solutions were prepared containing [Glu^22,25, Leu^23,28,31, Aib29, Lys^26,31]hPTHrP(1-34)NH2 (SEQ ID NO.: 2) 2 mg/ml, acetate buffer 6 mM and water for injection, with various different preservatives added at concentrations recommended for effective antimicrobial activity. Solutions were prepared at room temperature, by dissolution of the various ingredients in water for injection, with stirring over <30 minutes to ensure complete dissolution, Solutions were filtered through 0.2 micron filter and filled into glass vials, to which a rubber stopper was applied and crimped in place to ensure complete closure.
The solution with methylparaben was less acceptable due to precipitation and inactivity immediately after manufacture of the solution. The solutions were then stored for up to 3 months at 25° C., and up to 4.5 months at 5° C. and the preservative effectiveness test repeated. as described in Example 5.

A further data set concerns Bacteria; Yeast and mold. Nature of the data set: Anti-microbial effectiveness test, overall result (conformity). In kind it is cell-based. The settings on record: for preservative effectiveness results for both Bacteria and Yeasts/moulds: immediately after manufacture.
Data set [1] in a line: Chemical stability of formulations: (SEQ ID NO.: 2) content (Table 6). In kind it is physicochemical. Conditions: formulations of Table 6. An excerpt:
TABLE 6 details the chemical stability of the formulations described in Example 4.

With `COC(=O)c1ccc(O)cc1` [Methyparaben], the “suitability as preservative for use with SEQ ID NO.: 2 (precipitation and/or inactivity in preservative activity)” value with bacteria, yeast and mold is “not suitable”. Consider `Oc1ccccc1` [Phenol], for which, in the data set on Bacteria; Yeast and mold (after 3 and 4.5 months storage), the “preservative efficacy for both Bacteria and Yeasts/moulds” value was “maintained”. In the data set on Bacteria; Yeast and mold, the “preservative effectiveness results for both Bacteria and Yeasts/moulds” value is listed as “compliant”. Consider `CC[C@H](C)[C@H](NC(=O)[C@H](CO)NC(=O)[C@H](CCCCN)NC(=O)CNC(=O)[C@H](CCCCN)NC(=O)[C@H](CC(=O)O)NC(=O)[C@H](Cc1cnc[nH]1)NC(=O)[C@H](CC(C)C)NC(=O)[C@H](CC(C)C)NC(=O)[C@H](CCC(N)=O)NC(=O)[C@H](Cc1cnc[nH]1)NC(=O)[C@H](CCC(=O)O)NC(=O)[C@H](CO)NC(=O)[C@@H](NC(=O)[C@H](C)N)C(C)C)C(=O)N[C@@H](CCC(N)=O)C(=O)N[C@@H](CC(=O)O)C(=O)N[C@@H](CC(C)C)C(=O)N[C@@H](CCCNC(=N)N)C(=O)N[C@@H](CCCNC(=N)N)C(=O)N[C@@H](CCCNC(=N)N)C(=O)N[C@@H](CCC(=O)O)C(=O)N[C@@H](CC(C)C)C(=O)N[C@@H](CC(C)C)C(=O)N[C@@H](CCC(=O)O)C(=O)N[C@@H](CCCCN)C(=O)N[C@@H](CC(C)C)C(=O)N[C@@H](CC(C)C)C(=O)NC(C)(C)C(=O)N[C@@H](CCCCN)C(=O)N[C@@H](CC(C)C)C(=O)N[C@@H](Cc1cnc[nH]1)C(=O)N[C@H](C(=O)N[C@@H](C)C(N)=O)[C@@H](C)O` [SEQ ID NO.: 2, [Glu^22,25, Leu^23,28,31, Aib^29, Lys^26,30]hPTHrP(1-34)NH2], for which the “solution stability, influence of the preservative selected” value in data set [1] is recorded as “not significantly influenced”. Turning to `OCc1ccccc1` [Benzyl Alcohol], the “suitability as preservative for use with SEQ ID NO.: 2 (precipitation and/or inactivity in preservative activity)” value in the data set on bacteria, yeast and mold is given as “not suitable”. In the data set with Bacteria; Yeast and mold (after 3 and 4.5 months storage), the “efficacy against Bacteria” value is “not compliant”. The “preservative effectiveness results for both Bacteria and Yeasts/moulds” value in the data set on Bacteria; Yeast and mold was “compliant”.
